The supplement of paper PMC10307832

Columns and labels:
Assay in all cases: relative viability (nuclei count vs DMSO), 5 days (fraction); higher = more cells survive
[1] = compound: C1=CC=C2C(=C1)N=C(S2)C(C#N)C3=NC(=NC=C3)NCCC4=CN=CC=C4 + Cc1cc(Nc2cc(N3CCN(C)CC3)nc(Sc3ccc(NC(=O)C4CC4)cc3)n2)n[nH]1 [Tozasertib] (partner 0.1 µM)
Summary of the method: (§1)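 Relative viability divides the nuclei count in treated wells by that in vehicle wells. Lung cancer cell lines were seeded in 1536-well plates, dosed by pin tool the next day, and fixed and stained after 5 days in one step with final 0.05% Triton X-100, 1% formaldehyde and 1 ug/ml Hoechst. Dosing was a single drug or a fixed anchor-drug dose plus five library-drug doses (not always all listed) in √10 steps, and values are medians of duplicate plates imaged at 4×.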

[2] = compound: C1=CC=C2C(=C1)N=C(S2)C(C#N)C3=NC(=NC=C3)NCCC4=CN=CC=C4 + C[C@@H](Oc1cc(-c2cnn(C3CCNCC3)c2)cnc1N)c1c(Cl)ccc(F)c1Cl [Crizotinib] (partner 1 µM)
Summary of the method: as §1

CUDC-101 + Pemetrexed = compound: C#Cc1cccc(Nc2ncnc3cc(OC)c(OCCCCCCC(=O)NO)cc23)c1 [CUDC-101] + Nc1nc2[nH]cc(CCc3ccc(C(=O)N[C@@H](CCC(=O)O)C(=O)O)cc3)c2c(=O)[nH]1 [Pemetrexed] (partner 0.2 µM)
Summary of the method: as §1

CUDC-101 + Linsitinib = compound: C#Cc1cccc(Nc2ncnc3cc(OC)c(OCCCCCCC(=O)NO)cc23)c1 [CUDC-101] + C[C@]1(O)C[C@@H](c2nc(-c3ccc4ccc(-c5ccccc5)nc4c3)c3c(N)nccn32)C1 [Linsitinib] (partner 1 µM)
Summary of the method: as §1

Cell Line | relative viability ([1]; first compound 0.005 µM) | relative viability ([1]; first compound 0.01581 µM) | relative viability ([1]; first compound 0.05 µM) | relative viability ([1]; first compound 0.1581 µM) | relative viability ([1]; first compound 0.5 µM) | relative viability ([2]; first compound 0.005 µM) | relative viability ([2]; first compound 0.01581 µM) | relative viability ([2]; first compound 0.05 µM) | relative viability ([2]; first compound 0.1581 µM) | relative viability ([2]; first compound 0.5 µM) | relative viability (CUDC-101 + Pemetrexed; first compound 0.01 µM) | relative viability (CUDC-101 + Pemetrexed; first compound 0.03162 µM) | relative viability (CUDC-101 + Pemetrexed; first compound 0.1 µM) | relative viability (CUDC-101 + Pemetrexed; first compound 0.3162 µM) | relative viability (CUDC-101 + Pemetrexed; first compound 1 µM) | relative viability (CUDC-101 + Linsitinib; first compound 0.01 µM) | relative viability (CUDC-101 + Linsitinib; first compound 0.03162 µM) | relative viability (CUDC-101 + Linsitinib; first compound 0.1 µM) | relative viability (CUDC-101 + Linsitinib; first compound 0.3162 µM) | relative viability (CUDC-101 + Linsitinib; first compound 1 µM)
NCI-H1915 | 0.343 | 0.455 | 0.442 | 0.534 | 0.305 | 0.718 | 0.955 | 0.928 | 0.994 | 0.565 | 0.495 | 0.45 | 0.45 | 0.497 | 0.455 | 1.1 | 1.16 | 1.07 | 1.11 | 1
NCI-H661 | 0.365 | 0.332 | 0.342 | 0.355 | 0.392 | 1.24 | 1.26 | 0.99 | 1.06 | 0.98 | 0.956 | 0.903 | 0.953 | 0.968 | 0.631 | 0.64 | 0.487 | 0.74 | 0.681 | 0.675
NCI-H2228 | 0.251 | 0.232 | 0.211 | 0.187 | 0.226 | 0.464 | 0.444 | 0.483 | 0.454 | 0.386 | 0.352 | 0.359 | 0.333 | 0.392 | 0.346 | 0.894 | 0.652 | 0.625 | 0.722 | 0.949
NCI-H1975 | 0.458 | 0.741 | 0.635 | 0.878 | 0.203 | 0.766 | 1.18 | 0.954 | 1.14 | 0.667 | 0.27 | 0.283 | 0.296 | 0.277 | 0.313 | 1.1 | 0.881 | 1.01 | 0.888 | 0.905
NCI-H2087 | 0.201 | 0.229 | 0.234 | 0.199 | 0.211 | 0.908 | 0.807 | 0.76 | 0.954 | 0.727 | 0.681 | 0.699 | 0.648 | 0.605 | 0.678 | 0.916 | 0.87 | 1.01 | 0.882 | 0.812
LCLC-97TM1 | 0.294 | 0.214 | 0.273 | 0.256 | 0.281 | 0.28 | 0.394 | 0.368 | 0.326 | 0.256 | 0.166 | 0.172 | 0.183 | 0.157 | 0.135 | 0.211 | 0.158 | 0.201 | 0.166 | 0.151
EPLC-272H | 0.168 | 0.225 | 0.253 | 0.236 | 0.388 | 0.852 | 0.97 | 0.868 | 0.94 | 0.795 | 0.345 | 0.316 | 0.428 | 0.387 | 0.235 | 1.25 | 1.1 | 1.16 | 1.05 | 1.08
CAL-12T | 0.222 | 0.336 | 0.275 | 0.388 | 0.197 | 0.48 | 0.561 | 0.743 | 0.766 | 0.37 | 1.45 | 1.13 | 1.19 | 1.14 | 1.18 | 0.914 | 0.7 | 0.777 | 0.924 | 0.656
NCI-H1755 | 0.448 | 0.544 | 0.563 | 0.598 | 0.584 | 0.809 | 0.964 | 0.844 | 1.02 | 0.831 | 0.425 | 0.42 | 0.441 | 0.407 | 0.384 | 1.04 | 0.988 | 0.994 | 0.986 | 0.968
H3255 | 0.685 | 0.609 | 0.702 | 0.089 | 0.9 | 0.722 | 0.811 | 0.911 | 0.937 | 0.824 | 0.62 | 0.543 | 0.408 | 0.449 | 0.304 | 1.02 | 0.751 | 0.38 | 0.5 | 0.203
NCI-H441 | – | 0.715 | 0.633 | 0.759 | 0.531 | – | 0.486 | 0.691 | 0.834 | 0.554 | 0.248 | 0.261 | 0.263 | 0.274 | 0.228 | 0.748 | 0.662 | 0.579 | 0.779 | 0.358
LK-2 | 0.171 | 0.186 | 0.164 | 0.174 | 0.184 | – | – | 0.216 | 0.209 | 0.238 | 0.255 | 0.28 | 0.245 | 0.207 | 0.133 | 0.464 | 0.561 | 0.614 | 0.472 | 0.25
SW 1573 | 0.174 | 0.179 | – | 0.175 | 0.156 | 0.753 | 0.809 | 0.722 | 0.793 | 0.785 | 0.86 | 0.97 | 1.08 | 0.96 | 0.459 | 0.867 | 0.919 | 0.915 | 0.955 | 0.637
HCC-78 | 0.423 | 0.503 | 0.472 | 0.552 | 0.261 | 0.325 | 0.36 | 0.325 | 0.491 | 0.317 | 0.876 | 0.942 | 0.921 | 0.912 | 0.862 | 0.438 | 0.387 | 0.707 | 0.42 | 0.27
SK-MES-1 | 0.909 | 0.978 | 0.838 | 0.886 | 0.511 | 1.11 | 1.12 | 0.99 | 1.14 | 0.902 | 0.896 | 0.946 | 0.922 | 0.972 | 0.724 | 1.17 | 1.13 | 1.05 | 1.1 | 0.742
NCI-H2023 | 0.288 | 0.386 | 0.251 | 0.275 | 0.136 | 0.592 | 0.568 | 0.604 | 0.706 | 0.483 | 0.255 | 0.298 | 0.201 | 0.233 | 0.183 | 0.636 | 0.482 | 0.606 | 0.776 | 0.608
NCI-H2126 | 0.709 | 0.837 | 0.823 | 0.934 | 0.681 | 0.825 | 0.989 | 1.02 | 1.04 | 0.881 | 0.635 | 0.659 | 0.761 | 0.687 | 0.529 | 0.742 | 0.646 | 0.733 | 0.648 | 0.586
RERF-LC-KJ | 0.535 | 0.549 | 0.507 | 0.472 | 0.413 | 0.942 | 0.856 | 0.819 | 0.891 | 0.749 | 0.476 | 0.493 | 0.438 | 0.42 | 0.357 | 0.965 | 1.01 | 0.839 | 0.849 | 0.694
NCI-H3122 | 0.46 | 0.419 | 0.433 | 0.386 | 0.344 | 0.245 | 0.305 | 0.279 | 0.296 | 0.296 | 0.19 | 0.21 | 0.191 | 0.209 | 0.22 | 1.06 | 1.01 | 1.03 | 1.08 | 0.989
NCI-H322M | 0.4 | 0.382 | 0.487 | 0.531 | 0.48 | 0.845 | 0.85 | 0.953 | 0.891 | 0.796 | 0.636 | 0.604 | 0.585 | 0.569 | 0.453 | 0.882 | 0.76 | 0.741 | 0.803 | 0.737
NCI-H647 | 0.315 | 0.342 | 0.289 | 0.292 | 0.151 | – | 1 | 0.89 | 1.38 | 0.874 | 0.177 | 0.167 | 0.199 | 0.194 | 0.165 | 1.23 | 1.03 | 1.18 | 1.1 | 1.12
EMC-BAC-2 | 0.268 | 0.32 | 0.262 | 0.278 | 0.234 | 0.645 | 0.769 | 0.704 | 0.766 | 0.581 | 0.464 | 0.399 | 0.46 | 0.394 | 0.354 | 0.845 | 0.867 | 0.852 | 0.765 | 0.634
PC-14 | 0.573 | 0.667 | 0.554 | 0.631 | 0.45 | 0.856 | 0.961 | 0.929 | 0.972 | 0.744 | 0.154 | 0.129 | 0.156 | 0.138 | 0.152 | 0.986 | 0.782 | 1.01 | 0.683 | 0.137
201T | 0.788 | 0.964 | 0.941 | 0.929 | 0.837 | 0.978 | 1.03 | 1.02 | 1.07 | 0.995 | 0.281 | 0.387 | 0.368 | 0.356 | 0.29 | 1.05 | 0.93 | 0.978 | 1.05 | 0.781
LXF-289 | 0.173 | 0.197 | 0.184 | 0.232 | 0.237 | 0.761 | 0.798 | 0.831 | 0.869 | 0.798 | 0.881 | 0.888 | 0.873 | 0.904 | 0.805 | 0.989 | 1.04 | 0.979 | 0.992 | 0.781
